Test results published in US10881648B2, “Combination therapy including an MDM2 inhibitor and one or more additional pharmaceutically active agents for the treatment of cancers” (AMGEN INC., priority 2013, dated 2021).

Test system: A204 cells
Test: Two-way combination growth inhibition, CellTiter-Glo cell viability, 72 h, Loewe additivity analysis
Type: cell-based
Settings: FIG. 1a, compound crossed with itself (A×A, 1×1)
Protocol: Cell lines were purchased from American Type Culture Collection (ATCC), German Collection of Microorganisms and Cell Cultures (DSMZ), and Japanese Collection of Research Bioresources (JCRB). Each line was cultured in its recommended growth medium. Cell line A375sq2 was made in accordance with the procedure set forth in J. Med. Chem. 2009, 52, 6189-6192, footnote 13.
For Examples 1 to 71, cells were seeded into 384-well cell culture plates at initial densities ranging from 300 to 7500 cells per well in a 30 μL volume, depending on the growth rate of the cell line, so that adherent cells would remain at subconfluent densities by the end of the 72-hour treatment period. […] CellTiter-Glo® Luminescent Cell Viability Assay (Promega; Madison, Wis.) was used to determine the number of viable cells based on quantitation of the amount of ATP present, an indicator of metabolically active cells. Luminescence was measured with an EnVision® Multilabel Reader (Perkin Elmer; Waltham, Mass.) for each cell line at time zero (V0) before the addition of compounds, as well as after 72 hours of compound treatment (T72). Growth inhibition (GI) was calculated according to the following equations, where V72 was luminescence of DMSO control at 72 hours and T72 was luminescence of the compound-treated sample: if T72≥V0, then GI=100×(1−((T72−V0)/(V72−V0))); if T72<V0, then […]. […]

CC(C)[C@@H](CS(=O)(=O)C(C)C)N1C(=O)[C@@](C)(CC(=O)O)C[C@H](c2cccc(Cl)c2)[C@H]1c1ccc(Cl)cc1 [Compound A, 2-((3R,5R,6S)-5-(3-chlorophenyl)-6-(4-chlorophenyl)-1-((S)-1-(isopropylsulfonyl)-3-methylbutan-2-yl)-3-methyl-2-oxopiperidin-3-yl)acetic acid]
synergy score for the self-cross combination: 0.621
